Assay results from US20260022143A1, “Cyclic Peptide Inhibitors of IL-23” (JANSSEN PHARMACEUTICA NV, priority 2022, published 2026).
Counter-ions that a name gives are not always drawn. Starred links: 1 amine or outer side, 2 acyl side, 3 side chain; linkers in the order of their positions; H or OH if unused. Positions of bridges follow the written chain, without caps; N, C: chain ends. Non-standard residues stand in square brackets, D forms with d. Residues, ends and D or L forms follow the SMILES beside them. Groups on a side chain read outwards from the residue. *: point of attachment. Me3N+(CH2)2O(CH2)2O(CH2)2CO = C[N+](C)(C)CCOCCOCCC(=O)*; Trp(7-Me) = Cc1cccc2c(C[C@H](N)C(=O)O)c[nH]c12; dLys(Me3) = C[N+](C)(C)CCCC[C@@H](N)C(=O)O; 3Pal(5-Me) = Cc1cncc(C[C@H](N)C(=O)O)c1; X89 = COCCOCCOCC[N+](C)(CCOCCOCCOC)CC*; γGlu = O=C(O)[C@H](CCC(=O)[*:2])N[*:1]; 2Nal = N[C@@H](Cc1ccc2ccccc2c1)C(=O)O; AEF = NCCOc1ccc(C[C@H](N)C(=O)O)cc1; PEG6 = NCCOCCOCCOCCOCCOCCOCCC(=O)O; X10 = C[N+](C)(C)C[C@H](CC(=O)O)N*; 3Pal = N[C@@H](Cc1cccnc1)C(=O)O; Myristoyl = CCCCCCCCCCCCCC(=O)*; Lys(Me) = CNCCCC[C@H](N)C(=O)O; Chg = N[C@H](C(=O)O)C1CCCCC1; Pen = CC(C)(S)[C@H](N)C(=O)O; Thp = NC1(C(=O)O)CCOCC1; X3 = C[N+](C)(C)CCCCC*; AEEA = NCCOCCOCC(=O)O; Tfa = O=C(C(F)(F)F)*; Sar = CNCC(=O)O; CHF2 = FC(F)*

Assay: Exposed Polar Surface Area (EPSA)
Type: physicochemical
Conditions: SFC on Chirex 3014 column; sample 1 mM DMSO stock; read-out: EPSA
Text: Exposed Polar Surface Area (EPSA) is an experimental descriptor of molecular polarity obtained from chromatographic retention in supercritical fluid chromatography (SFC).
The stationary phase (Chirex 3014(S)-valine and (R)-1-(alpha-naphthyl) ethylamine) was selected for its balance of lipophilic and polar attributes and its capacity to separate compounds with wide polarity differences. The mobile phase consists of methanol (+Ammonium formate) and CO2. Polar compounds are retained stronger under these conditions and a low-slope gradient of methanol achieves elution based on increasing polarity of the mobile phase. Results are normalized using calibration standards generating a linear relationship between retention times and EPSA values. The unit of EPSA is Å^2.
Along with the measurement of compounds of interest, a series of 8 calibration standards (see Materials) are analyzed generating a linear relationship between retention times and EPSA value. The 8 compounds used as calibration standard have their own EPSA value defined by G. Goetz based on the comparison with TPSA (see G. Goetz, L. Philippe and M. Shapiro, “EPSA: A novel supercritical fluid chromatography technique enabling the design of permeable cyclic peptides,” ACS Med. Chem. Lett., vol. 5, pp. 1167-1172, 2014 for more information). The slope from the linear relationship between EPSA values of these eight compounds and their retention times is used to determine the EPSA value of each compound of interest that's measured under the same condition using the equation as below: […]
The mixture of calibrations standard is reinjected every 20 compounds to validate the stability of the retention time.
The mobile phase modifier consists of ammonium formate LC_MS grade (>99%) (CAS number 540-69-2) diluted to 20 mM in HPLC grade Methanol (MeOH, CAS number 67-56-1) and liquid C02 SFC grade (CAS number 124-38-9).
Antipyrine (CAS number: 60-80-0) Chlorpromazine hydrochloride (CAS number: 69-09-0), desipramine hydrochloride (CAS number: […]), pindolol (CAS Number: 13523-86-9), diclofenac (CAS number: 15307-79-6)), m-nitro benzoic acid (CAS number: 121-92-6), bumetanide (CAS number: 28395-03-1), furosemide (CAS number: 54-31-9) were purchased from Sigma Aldrich (Steihneim, Germany).
All analyses were performed on a ultra performance convergence chromatography (UPC™) apparatus (Waters, Milford, MA, USA) equipped with a sample manager, a binary solvent delivery pump (BSM), a column manager, a convergence manager (automated back pressure regulator), a photo diode array detector (DAD) with a high pressure flow cell, and a mass detector simple quadrupole QDa. After the UV detector, the effluent of the SFC was mixed with an eluent consist of mixture MeOH/water (+0.3% Ammonia) 95/5 delivered by a make up pump with a flow rate of 0.4 mL/min and then split to the QDa using a splitter. The instrument was controlled, and data were processed with Masslynx 4.1.
The Analyses were performed using a 4.6×50 mm Chirex 3014(S)-valine and (R)-1-(alpha- naphthyl) ethylamine column (Phenomenex, Le Pecq, France) with 5 um particle and 100A pore size. The flow rate was 4 mL/min with the outlet pressure set to 14 MPa. The injection volume was 2 μL. the mobile phase composition was varied from 5% to 60% modifier at 20%/ min in a linear gradient, holding at 60% for 1.45 min and reverting to the original 5% until the end of the run. Data are acquired during 5 min. An equilibration time of 1 min is applied between 2 injections resulting in an injection every 6 min. each sample is analyzed in duplicate, resulting in a sample to sample turnaround time of 12 min.
The column temperature was set to 35° C. The mass detector was used in full scan from 100 to 800 for small molecules and from 500 to 1200 for peptides.
Each sample is delivered by compound logistics from DMSO stock solution without dilution. The concentration is 1 mM and the volume is 60 μL.

| EPSA | Compound |
| --- | --- |
| 171 A^2 | CCCCCCCCCCCCCC(=O)N[C@@H](CCC(=O)NCCOCCOCC(=O)NCCOCCOCC(=O)NCCCC[C@@H]1NC(=O)[C@@H](NC(=O)[C@@H](CCCCNC(=O)COCCOCCNC(=O)COCCOCCNC(=O)CC[C@H](NC(=O)CCCCCCCCCCCCC)C(=O)O)NC(=O)CCOCCOCC[N+](C)(C)C)C(C)(C)SSC(C)(C)[C@@H](C(=O)N[C@@H](Cc2ccc(OCCCCC[N+](C)(C)C)cc2)C(=O)N[C@@H](Cc2ccc3ccccc3c2)C(=O)NC2(C(=O)N[C@@H](CCCCN(C)C(C)=O)C(=O)N[C@@H](CC(N)=O)C(=O)N[C@@H](Cc3cccnc3)C(=O)N(C)CC(=O)N(C)C)CCOCC2)NC(=O)[C@H](CCCCN(C)C(C)=O)NC(=O)[C@H](Cc2c[nH]c3c(C)cccc23)NC(=O)[C@H]([C@@H](C)O)NC1=O)C(=O)O [compound 381, cPEG3aCO-k(PEG2PEG2gEC14)-Pen(3)-K(PEG2PEG2gEC14)-T-7MeW-K(NMeAc)-Pen(3)-TMAPF-2Nal-THP-K(NMeAc)-N-3Pya-Sar-CON(Me)2] ({Me3N+(CH2)2O(CH2)2O(CH2)2CO}-[dK]([AEEA-AEEA-γGlu-Myristoyl])[Pen]K([AEEA-AEEA-γGlu-Myristoyl])T[Trp(7-Me)][Lys(Me)](Ac)[Pen]Y(X3)[2Nal][Thp][Lys(Me)](Ac)N[3Pal][Sar]-NMe2; disulfide 2-7) |
| 184 A^2 | CC(=O)NCCCC[C@@H]1NC(=O)[C@H](Cc2c[nH]c3c(C)cccc23)NC(=O)[C@H]([C@@H](C)O)NC(=O)[C@H](CC(N)=O)NC(=O)[C@@H](NC(=O)[C@@H](CCC(=O)N[C@@H](CC(=O)O)C[N+](C)(C)C)NC(C)=O)C(C)(C)SSC(C)(C)[C@@H](C(=O)N[C@@H](Cc2ccc(OCCN)cc2)C(=O)N[C@@H](Cc2ccc3ccccc3c2)C(=O)NC2(C(=O)N[C@@H](CCCCNC(C)=O)C(=O)N[C@@H](CC(N)=O)C(=O)N[C@@H](Cc3cccnc3)C(=O)N(C)CC(N)=O)CCOCC2)NC1=O [compound 126] (Ac-[dE](X10)[Pen]NT[Trp(7-Me)]K(Ac)[Pen][AEF][2Nal][Thp]K(Ac)N[3Pal][Sar]-NH2; disulfide 2-7) |
| 135 A^2 | COCCOCCOCC[N+](C)(CCOCCOCCOC)CCOc1ccc(C[C@H](NC(=O)[C@H]2NC(=O)[C@H](CCCCN(C)C(C)=O)NC(=O)[C@H](Cc3c[nH]c4c(C)cccc34)NC(=O)[C@H]([C@@H](C)O)NC(=O)[C@H](CC(=O)N(C)C)NC(=O)[C@@H](NC(=O)CCOCCOCC[N+](C)(C)C)C(C)(C)SSC2(C)C)C(=O)N[C@@H](Cc2ccc3ccccc3c2)C(=O)NC2(C(=O)N[C@@H](CCCCN(C)C(C)=O)C(=O)N[C@@H](CC(N)=O)C(=O)N[C@@H](Cc3cccnc3)C(=O)N(C)CC(=O)N(C)C)CCOCC2)cc1 [compound 241, cPEG3aCO-Pen(3)-N(N(Me)2)-T-7MeW-K(NMeAc)-Pen(3)-AEF(NMeBismPEG3)-2Nal-THP-K(NMeAc)-N-3Pya-Sar-CON(Me)2] ({Me3N+(CH2)2O(CH2)2O(CH2)2CO}-[Pen]D(NMe2)T[Trp(7-Me)][Lys(Me)](Ac)[Pen]Y(X89)[2Nal][Thp][Lys(Me)](Ac)N[3Pal][Sar]-NMe2; disulfide 1-6) |
| 174 A^2 | CC(=O)NCCCC[C@@H]1NC(=O)[C@H](Cc2c[nH]c3c(C)cccc23)NC(=O)[C@H]([C@@H](C)O)NC(=O)[C@H](CC(N)=O)NC(=O)[C@@H](NC(=O)[C@@H](CCCNC(=N)N)NC(=O)CCOCCOCCOCCOCCOCCOCCNC(C)=O)C(C)(C)SSC(C)(C)[C@@H](C(=O)N[C@@H](Cc2ccc(OCCN)cc2)C(=O)N[C@@H](Cc2ccc3ccccc3c2)C(=O)NC2(C(=O)N[C@@H](CCC(=O)O)C(=O)N[C@@H](CC(N)=O)C(=O)N[C@@H](Cc3cccnc3)C(=O)N(C)CC(N)=O)CCOCC2)NC1=O [compound 37] (Ac-[PEG6][dR][Pen]NT[Trp(7-Me)]K(Ac)[Pen][AEF][2Nal][Thp]EN[3Pal][Sar]-NH2; disulfide 3-8 (inferred)) |
| 155 A^2 | CC(=O)N(C)CCCC[C@@H]1NC(=O)[C@H](Cc2c[nH]c3c(C)cccc23)NC(=O)[C@H]([C@@H](C)O)NC(=O)[C@H](CC(=O)N(C)C)NC(=O)[C@@H](NC(=O)CCOCCOCC[N+](C)(C)C)C(C)(C)SSC(C)(C)[C@@H](C(=O)N[C@@H](Cc2ccc(OCCCCC[N+](C)(C)C)cc2)C(=O)N[C@@H](Cc2ccc3ccccc3c2)C(=O)N[C@H](C(=O)N[C@@H](CCCCN(C)C(C)=O)C(=O)N[C@@H](CC(N)=O)C(=O)N[C@@H](Cc2cccnc2)C(=O)N(C)CC(=O)N(C)C)C2CCCCC2)NC1=O [compound 340, cPEG3aCO-Pen(3)-N(N(Me)2)-T-7MeW-K(NMeAc)-Pen(3)-TMAPF-2Nal-Chg-K(NMeAc)-N-3Pya-Sar-CON(Me)2] ({Me3N+(CH2)2O(CH2)2O(CH2)2CO}-[Pen]D(NMe2)T[Trp(7-Me)][Lys(Me)](Ac)[Pen]Y(X3)[2Nal][Chg][Lys(Me)](Ac)N[3Pal][Sar]-NMe2; disulfide 1-6) |
| 161 A^2 | CC(=O)N(C)CCCC[C@@H]1NC(=O)[C@H](Cc2c[nH]c3c(C)cccc23)NC(=O)[C@H]([C@@H](C)O)NC(=O)[C@H](CC(N)=O)NC(=O)[C@@H](NC(=O)C(F)(F)F)C(C)(C)SSC(C)(C)[C@@H](C(=O)N[C@@H](Cc2ccc(OCCN)cc2)C(=O)N[C@@H](Cc2ccc3ccccc3c2)C(=O)NC2(C(=O)N[C@@H](CCCCN(C)C(C)=O)C(=O)N[C@@H](CC(N)=O)C(=O)N[C@@H](Cc3cccnc3)C(=O)N(C)CC(N)=O)CCOCC2)NC1=O [compound 69] (Tfa-[Pen]NT[Trp(7-Me)][Lys(Me)](Ac)[Pen][AEF][2Nal][Thp][Lys(Me)](Ac)N[3Pal][Sar]-NH2; disulfide 1-6) |
| 156 A^2 | CC(=O)NCCCC[C@@H]1NC(=O)[C@H](Cc2c[nH]c3c(C)cccc23)NC(=O)[C@H]([C@@H](C)O)NC(=O)[C@H](CC(N)=O)NC(=O)[C@@H](NC(=O)C(F)(F)F)C(C)(C)SSC(C)(C)[C@@H](C(=O)N[C@@H](Cc2ccc(OC(F)F)cc2)C(=O)N[C@@H](Cc2ccc3ccccc3c2)C(=O)NC2(C(=O)N[C@@H](CCCCNC(C)=O)C(=O)N[C@@H](CC(N)=O)C(=O)N[C@@H](Cc3cccnc3)C(=O)N(C)CC(N)=O)CCOCC2)NC1=O [compound 54] (Tfa-[Pen]NT[Trp(7-Me)]K(Ac)[Pen]Y(CHF2)[2Nal][Thp]K(Ac)N[3Pal][Sar]-NH2; disulfide 1-6 (inferred)) |
| 173 A^2 | CC(=O)NCCCC[C@@H]1NC(=O)[C@H](Cc2c[nH]c3c(C)cccc23)NC(=O)[C@H]([C@@H](C)O)NC(=O)[C@H](CC(N)=O)NC(=O)[C@@H](NC(=O)[C@@H](CCCC[N+](C)(C)C)NC(C)=O)C(C)(C)SSC(C)(C)[C@@H](C(=O)N[C@@H](Cc2ccc(OCCCCC[N+](C)(C)C)cc2)C(=O)N[C@@H](Cc2ccc3ccccc3c2)C(=O)NC2(C(=O)N[C@@H](CCC(=O)O)C(=O)N[C@@H](CC(N)=O)C(=O)N[C@@H](Cc3cccnc3)C(=O)N(C)CC(N)=O)CCOCC2)NC1=O [compound 446, MeCO-k(Me)3-Pen(3)-N-T-7MeW-K(Ac)-Pen(3)-TMAPF-2Nal-THP-E-N-3Pya-Sar-CONH2] (Ac-[dLys(Me3)][Pen]NT[Trp(7-Me)]K(Ac)[Pen]Y(X3)[2Nal][Thp]EN[3Pal][Sar]-NH2; disulfide 2-7) |
| 185 A^2 | CC(=O)NCCCC[C@@H]1NC(=O)[C@H](Cc2c[nH]c3c(C)cccc23)NC(=O)[C@H]([C@@H](C)O)NC(=O)[C@H](CC(N)=O)NC(=O)[C@@H](NC(=O)[C@@H](CCCC[N+](C)(C)C)NC(C)=O)C(C)(C)SSC(C)(C)[C@@H](C(=O)N[C@@H](Cc2ccc(OCCN)cc2)C(=O)N[C@@H](Cc2ccc3ccccc3c2)C(=O)NC2(C(=O)N[C@@H](CCC(=O)O)C(=O)N[C@@H](CC(N)=O)C(=O)N[C@@H](Cc3cncc(C)c3)C(=O)N(C)CC(N)=O)CCOCC2)NC1=O [compound 474] (Ac-[dLys(Me3)][Pen]NT[Trp(7-Me)]K(Ac)[Pen][AEF][2Nal][Thp]EN[3Pal(5-Me)][Sar]-NH2; disulfide 2-7) |
